Target: T1, human ΔF508-CFTR (Homo sapiens, UniProt P13569, DEL508-508)
T1 construct: expressed in transfected cells
Experiment: CFTR-YFP High Throughput Assay (YFP halide flux in FRT cells)
Assay type: cell-based
Details: FRT cells expressing human ΔF508-CFTR and YFP; forskolin stimulated
Summary of the method: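 FRT cells stably co-expressing human ΔF508-CFTR and halide-sensitive YFP-H148Q/I152L were treated with compound […] for 24–26 h at 37 °C (corrector mode), washed, then stimulated with 20 μM forskolin plus 30 μM potentiator P3 for 60–120 min at room temperature. Iodide-induced YFP quench (ex 500/em 540 nm) rates came from least-squares fitting.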

T1 sequence (P13569 with tags, fused parts or gaps DEL508-508): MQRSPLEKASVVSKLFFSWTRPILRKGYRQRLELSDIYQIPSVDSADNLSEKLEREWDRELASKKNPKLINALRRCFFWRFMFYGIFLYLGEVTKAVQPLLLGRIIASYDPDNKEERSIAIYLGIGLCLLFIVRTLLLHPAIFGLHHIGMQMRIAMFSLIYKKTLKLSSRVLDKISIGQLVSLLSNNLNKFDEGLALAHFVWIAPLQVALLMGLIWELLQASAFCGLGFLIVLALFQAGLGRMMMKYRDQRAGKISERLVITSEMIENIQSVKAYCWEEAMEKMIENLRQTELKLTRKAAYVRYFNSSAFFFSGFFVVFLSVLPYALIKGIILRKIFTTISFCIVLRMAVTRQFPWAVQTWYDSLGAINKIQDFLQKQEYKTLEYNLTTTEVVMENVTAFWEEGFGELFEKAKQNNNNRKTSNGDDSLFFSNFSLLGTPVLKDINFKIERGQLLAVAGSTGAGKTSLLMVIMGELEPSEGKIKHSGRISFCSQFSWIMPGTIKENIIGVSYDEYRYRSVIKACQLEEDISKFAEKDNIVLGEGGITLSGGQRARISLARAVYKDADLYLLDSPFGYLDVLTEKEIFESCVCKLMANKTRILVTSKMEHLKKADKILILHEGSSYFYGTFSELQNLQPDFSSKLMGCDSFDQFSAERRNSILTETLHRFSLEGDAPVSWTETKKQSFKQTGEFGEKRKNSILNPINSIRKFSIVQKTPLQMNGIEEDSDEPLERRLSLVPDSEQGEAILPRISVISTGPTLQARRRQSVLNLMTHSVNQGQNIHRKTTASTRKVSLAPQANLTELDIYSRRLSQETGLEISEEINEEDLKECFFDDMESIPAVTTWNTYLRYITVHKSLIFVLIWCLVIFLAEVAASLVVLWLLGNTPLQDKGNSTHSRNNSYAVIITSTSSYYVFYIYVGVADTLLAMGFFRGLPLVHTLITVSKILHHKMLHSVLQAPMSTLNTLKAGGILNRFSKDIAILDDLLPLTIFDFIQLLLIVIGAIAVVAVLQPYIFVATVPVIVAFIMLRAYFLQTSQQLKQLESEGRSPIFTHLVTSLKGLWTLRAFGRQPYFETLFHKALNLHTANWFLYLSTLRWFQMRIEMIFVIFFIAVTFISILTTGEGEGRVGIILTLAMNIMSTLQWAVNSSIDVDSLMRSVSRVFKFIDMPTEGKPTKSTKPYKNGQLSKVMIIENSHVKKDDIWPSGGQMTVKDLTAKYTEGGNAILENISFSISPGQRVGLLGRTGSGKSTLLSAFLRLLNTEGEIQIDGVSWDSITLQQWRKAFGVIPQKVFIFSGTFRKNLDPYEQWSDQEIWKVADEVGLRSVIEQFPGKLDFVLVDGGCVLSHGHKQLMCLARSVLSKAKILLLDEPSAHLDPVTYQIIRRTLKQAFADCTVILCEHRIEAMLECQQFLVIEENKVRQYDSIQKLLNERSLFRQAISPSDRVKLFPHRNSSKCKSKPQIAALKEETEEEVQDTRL

EC50 [µM]	Compound
10 to 20	CCN(C(=O)Cn1ncc2c(c1=O)c1ccccc1n2Cc1ccccn1)c1ccc2c(c1)OC(F)(F)O2 [Example 85, N-(2,2-difluorobenzo[d][1,3]dioxol-5-yl)-N-ethyl-2-(1-oxo-5-(pyridin-2-ylmethyl)-1H-pyridazino[4,5-b]indol-2(5H)-yl)acetamide]
< 10	CCN(C(=O)Cn1ncc2c(c1=O)c1ccccc1n2CCOC)c1ccc2c(c1)OC(F)(F)O2 [Example 86, N-(2,2-difluorobenzo[d] [1,3]dioxol-5-yl)-N-ethyl-2-(5-(2-methoxyethyl)-1-oxo-1H-pyridazino[4,5-b]indol-2(5H)-yl)acetamide]
< 10	CCN(C(=O)Cn1ncc2c(c1=O)c1ccccc1n2Cc1ccccc1)c1ccc2c(c1)OC(F)(F)O2 [Example 87, 2-(5-benzyl-1-oxo-1H-pyridazino[4,5-b]indol-2(5H)-yl)-N-(2,2-difluorobenzo[d][1,3]dioxol-5-yl)-N-ethylacetamide]
< 10	CCN(C(=O)Cn1ncc2c(c1=O)c1ccccc1n2CCC(=O)OC)c1ccc2c(c1)OC(F)(F)O2 [Example 88, methyl 3-(2-(2-((2,2-difluorobenzo[d][1,3]dioxol-5-yl)(ethyl)amino)-2-oxoethyl)-1-oxo-1H-pyridazino[4,5-b]indol-5(2H)-yl)propanoate]
10 to 20	CCN(C(=O)Cn1ncc2c(c1=O)c1ccccc1n2Cc1cccc(OC)c1)c1ccc2c(c1)OC(F)(F)O2 [Example 89, N-(2,2-difluorobenzo[d] [1,3]dioxol-5-yl)-N-ethyl-2-(5-(3-methoxybenzyl)-1-oxo-1H-pyridazino[4,5-b]indol-2(5H)-yl)acetamide]
10 to 20	CCN(C(=O)Cn1ncc2c(c1=O)c1ccccc1n2Cc1ccc(OC)cc1)c1ccc2c(c1)OC(F)(F)O2 [Example 90, N-(2,2-difluorobenzo[d][1,3]dioxol-5-yl)-N-ethyl-2-(5-(4-methoxy-benzyl)-1-oxo-1H-pyridazino[4,5-b]indol-2(5H)-yl)acetamide]
< 10	CCN(C(=O)Cn1ncc2c(c1=O)c1ccccc1n2CCCOC)c1ccc2c(c1)OC(F)(F)O2 [Example 91, N-(2,2-difluorobenzo[d] [1,3]dioxol-5-yl)-N-ethyl-2-(5-(3-methoxypropyl)-1-oxo-1H-pyridazino[4,5-b]indol-2(5H)-yl)acetamide]
< 10	CCN(C(=O)Cn1ncc2c(c1=O)c1ccccc1n2CCC#N)c1ccc2c(c1)OC(F)(F)O2 [Example 92, 2-(5-(2-cyanoethyl)-1-oxo-1H-pyridazino[4,5-b]indol-2(5H)-yl)-N-(2,2-difluorobenzo[d][1,3]dioxol-5-yl)-N-ethylacetamide]
< 10	CCN(C(=O)Cn1ncc2c(c1=O)c1ccccc1n2CC#N)c1ccc2c(c1)OC(F)(F)O2 [Example 93, 2-(5-(cyanomethyl)-1-oxo-1H-pyridazino[4,5-b]indol-2(5H)-yl)-N-(2,2-difluorobenzo[d][1,3]dioxol-5-yl)-N-ethylacetamide]
< 10	CCN(C(=O)Cn1ncc2c(c1=O)c1ccccc1n2Cc1cccnc1)c1ccc2c(c1)OC(F)(F)O2 [Example 94, N-(2,2-difluorobenzo[d][1,3]dioxol-5-yl)-N-ethyl-2-(1-oxo-5-(pyridin-3-ylmethyl)-1H-pyridazino[4,5-b]indol-2(5H)-yl)acetamide]
< 10	CCN(C(=O)Cn1ncc2c(c1=O)c1ccccc1n2Cc1ccccc1C#N)c1ccc2c(c1)OC(F)(F)O2 [Example 95, 2-(5-(2-cyanobenzyl)-1-oxo-1H-pyridazino[4,5-b]indol-2(5H)-yl)-N-(2,2-difluorobenzo[d][1,3]dioxol-5-yl)-N-ethylacetamide]
< 10	CCN(C(=O)Cn1ncc2c(c1=O)c1ccccc1n2Cc1cccc(C#N)c1)c1ccc2c(c1)OC(F)(F)O2 [Example 96, 2-(5-(3-cyanobenzyl)-1-oxo-1H-pyridazino[4,5-b]indol-2(5H)-yl)-N-(2,2-difluorobenzo[d][1,3]dioxol-5-yl)-N-ethylacetamide]
< 10	CCN(C(=O)Cn1ncc2c(c1=O)c1ccccc1n2Cc1ccncc1)c1ccc2c(c1)OC(F)(F)O2 [Example 97, N-(2,2-difluorobenzo[d] [1,3]dioxol-5-yl)-N-ethyl-2-(1-oxo-5-(pyridin-4-ylmethyl)-1H-pyridazino[4,5-b]indol-2(5H)-yl)acetamide]
< 10	Cc1ccc(-n2nc(C(=O)N3CCCCC3)c3c4ccccc4n(C)c3c2=O)cc1 [Example 101, 5-methyl-1-(piperidine-1-carbonyl)-3-p-tolyl-3H-pyridazino[4,5-b]indol-4(5H)-one]
< 10	CCN(C(=O)c1nn(-c2ccccc2)c(=O)c2c1c1ccccc1n2C)c1ccncn1 [Example 102, N-ethyl-5-methyl-4-oxo-3-phenyl-N-(pyrimidin-4-yl)-4,5-dihydro-3H-pyridazino[4,5-b]indole-1-carboxamide]
< 10	Cc1ccc(-n2nc(C(=O)N(c3ccccc3)C(C)C)c3c4ccccc4n(C)c3c2=O)cc1 [Example 103, N-isopropyl-5-methyl-4-oxo-N-phenyl-3-(p-tolyl)-4,5-dihydro-3H-pyridazino[4,5-b]indole-1-carboxamide]
< 10	Cc1ccc(-n2nc(C(=O)N(c3ccccc3)C3CC3)c3c4ccccc4n(C)c3c2=O)cc1 [Example 104, N-cyclopropyl-5-methyl-4-oxo-N-phenyl-3-(p-tolyl)-4,5-dihydro-3H-pyridazino[4,5-b]indole-1-carboxamide]

EC50 [µM]	Compound
< 10	Cc1ccc(-n2nc(C(=O)N(CC#N)c3ccccc3)c3c4ccccc4n(C)c3c2=O)cc1 [Example 105, N-(cyanomethyl)-5-methyl-4-oxo-N-phenyl-3-(p-tolyl)-4,5-dihydro-3H-pyridazino[4,5-b]indole-1-carboxamide]
< 10	CCN(CC)C(=O)c1nn(-c2ccc(C)cc2)c(=O)c2c1c1ccccc1n2C [Example 106, N,N-diethyl-5-methyl-4-oxo-3-(p-tolyl)-4,5-dihydro-3H-pyridazino[4,5-b]indole-1-carboxamide]
< 10	CCN(C(=O)c1nn(-c2ccc(C)cc2)c(=O)c2c1c1ccccc1n2C)c1ccccn1 [Example 107, N-ethyl-5-methyl-4-oxo-N-(pyridin-2-yl)-3-(p-tolyl)-4,5-dihydro-3H-pyridazino[4,5-b]indole-1-carboxamide]
< 10	CCN(C(=O)c1nn(-c2ccc(C)cc2)c(=O)c2c1c1ccccc1n2C)c1cccnc1 [Example 108, N-ethyl-5-methyl-4-oxo-N-(pyridin-3-yl)-3-(p-tolyl)-4,5-dehydro-3H-pyridazino[4,5-b]indole-1-carboxamide]
< 10	CCN(C(=O)c1nn(-c2ccccc2)c(=O)c2c1c1ccccc1n2C)c1ccncc1 [Example 109, N-ethyl-5-methyl-4-oxo-3-phenyl-N-(pyridin-4-yl)-4,5-dihydro-3H-pyridazino[4,5-b]indole-1-carboxamide]
< 10	Cc1ccc(-n2nc(C(=O)N3CCCc4ccccc43)c3c4ccccc4n(C)c3c2=O)cc1 [Example 110, 5-methyl-1-(1,2,3,4-tetrahydroquinoline-1-carbonyl)-3-(p-tolyl)-3H-pyridazino[4,5-b]indol-4(5H)-one]
< 10	CCN(C(=O)c1nn(-c2ccc(C)cc2)c(=O)c2c1c1ccccc1n2C)C1CC1 [Example 111, N-cyclopropyl-N-ethyl-5-methyl-4-oxo-3-(p-tolyl)-4,5-dihydro-3H-pyridazino[4,5-b]indole-1-carboxamide]
< 10	Cc1ccc(-n2nc(C(=O)N3CCN(Cc4ccccc4)CC3)c3c4ccccc4n(C)c3c2=O)cc1 [Example 112, 1-(4-benzylpiperazine-1-carbonyl)-5-methyl-3-(p-tolyl)-3H-pyridazino[4,5-b]indol-4(5H)-one]
> 20	CCN(C(=O)c1nn(-c2ccccc2)c(=O)c2c1c1ccccc1n2C)c1ncccn1 [Example 113, N-ethyl-5-methyl-4-oxo-3-phenyl-N-(pyrimidin-2-yl)-4,5-dihydro-3H-pyridazino[4,5-b]indole-1-carboxamide]
> 20	Cc1ccc(-n2nc(C(=O)N(CC(=O)O)c3ccccc3)c3c4ccccc4n(C)c3c2=O)cc1 [Example 114, 2-(5-methyl-4-oxo-N-phenyl-3-(p-tolyl)-4,5-dihydro-3H-pyridazino[4,5-b]indole-1-carboxamido) acetic acid]
10 to 20	CCN(C(=O)c1nn(-c2ccccc2)c(=O)c2c1c1ccccc1n2C)c1ncnc2c1cnn2C [Example 115, N-ethyl-5-methyl-N-(1-methyl-1H-pyrazolo[3,4-d]pyrimidin-4-yl)-4-oxo-3-phenyl-4,5-dihydro-3H-pyridazino[4,5-b]indole-1-carboxamide]
< 10	CCN(C(=O)c1nn(-c2ccccn2)c(=O)c2c1c1ccccc1n2C)c1ccccc1 [Example 118, N-ethyl-5-methyl-4-oxo-N-phenyl-3-(pyridin-2-yl)-4,5-dihydro-3H-pyridazino[4,5-b]indole-1-carboxamide]
< 10	CCN(C(=O)c1nn(-c2cccnc2)c(=O)c2c1c1ccccc1n2C)c1ccccc1 [Example 119]
< 10	CCN(C(=O)c1nn(-c2ccncc2)c(=O)c2c1c1ccccc1n2C)c1ccccc1 [Example 120, N-ethyl-5-methyl-4-oxo-N-phenyl-3-(pyridin-4-yl)-4,5-dihydro-3H-pyridazino[4,5-b]indole-1-carboxamide]
< 10	CCN(C(=O)c1nn(-c2nccs2)c(=O)c2c1c1ccccc1n2C)c1ccccc1 [Example 121, N-ethyl-5-methyl-4-oxo-N-phenyl-3-(thiazol-2-yl)-4,5-dihydro-3H-pyridazino[4,5-b]indole-1-carboxamide]
10 to 20	CCN(C(=O)c1nn(-c2ncccn2)c(=O)c2c1c1ccccc1n2C)c1ccccc1 [Example 122, N-ethyl-5-methyl-4-oxo-N-phenyl-3-(pyrimidin-2-yl)-4,5-dihydro-3H-pyridazino[4,5-b]indole-1-carboxamide]

Source: patent US9790215B2 (FLATLEY DISCOVERY LAB, LLC, priority 2013, dated 2017)
